From patent US5506243A, “Sulfonamide derivatives” (Mitsubishi Kasei Corporation, priority 1993, dated 1996)

Biological target: T1, m-Calpin (Rattus norvegicus, UniProt Q07009)
T1 construct: m-Calpin was purified from brains of rats; from tissue; host or cells: rat brain
T1 sequence (Q07009 1-700): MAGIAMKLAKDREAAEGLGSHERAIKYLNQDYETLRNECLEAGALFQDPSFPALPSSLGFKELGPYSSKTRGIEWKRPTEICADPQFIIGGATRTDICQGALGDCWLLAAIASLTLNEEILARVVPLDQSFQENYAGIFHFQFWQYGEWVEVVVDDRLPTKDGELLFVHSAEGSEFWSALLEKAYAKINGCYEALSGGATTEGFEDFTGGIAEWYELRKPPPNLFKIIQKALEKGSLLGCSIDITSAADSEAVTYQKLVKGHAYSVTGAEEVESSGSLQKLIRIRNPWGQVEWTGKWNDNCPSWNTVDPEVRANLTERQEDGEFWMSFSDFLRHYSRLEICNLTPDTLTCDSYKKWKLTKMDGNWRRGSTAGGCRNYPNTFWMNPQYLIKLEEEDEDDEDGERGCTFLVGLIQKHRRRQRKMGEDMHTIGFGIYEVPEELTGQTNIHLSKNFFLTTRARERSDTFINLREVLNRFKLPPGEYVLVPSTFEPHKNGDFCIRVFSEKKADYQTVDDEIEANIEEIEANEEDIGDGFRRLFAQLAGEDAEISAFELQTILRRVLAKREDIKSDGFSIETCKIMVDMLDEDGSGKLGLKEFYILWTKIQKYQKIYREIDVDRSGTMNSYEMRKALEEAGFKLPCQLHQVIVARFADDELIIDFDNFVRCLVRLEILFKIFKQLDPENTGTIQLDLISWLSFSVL
T1 sequence (Q64537 1-270 partner): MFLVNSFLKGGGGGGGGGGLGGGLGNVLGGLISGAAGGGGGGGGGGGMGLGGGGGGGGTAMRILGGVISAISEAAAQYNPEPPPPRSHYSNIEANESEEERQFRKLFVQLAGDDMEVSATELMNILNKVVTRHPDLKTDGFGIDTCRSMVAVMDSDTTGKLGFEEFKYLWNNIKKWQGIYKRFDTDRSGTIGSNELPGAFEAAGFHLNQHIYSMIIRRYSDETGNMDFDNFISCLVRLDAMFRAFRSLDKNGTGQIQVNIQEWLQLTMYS
Assay: Measurement of calpain inhibitory activity
Assay type: biochemical
Conditions: m-calpain purified from brains of rats
Protocol: Measurement of calpain inhibitory activity
For comparison, inhibitory activity of leupeptin (N-terminus is in the form of amide) and calpeptin (N-terminus is in the form of carbamate) was also measured.

IC50 | Compound
46 nM | CCCC[C@@H](C=O)NC(=O)[C@H](CC(C)C)NC(=O)OCc1ccccc1 [Calpeptin]
11 nM | CC(C)C[C@H](NS(=O)(=O)c1ccccc1)C(=O)N[C@H](C=O)C(C)C [Example 1, N-phenylsulfonyl-L-leucyl-L-valinal]
6.5 nM | CC(C)C[C@H](NS(=O)(=O)c1cccnc1)C(=O)N[C@H](C=O)C(C)C [Example 2, N-3-pyridylsulfonyl-L-leucyl-L-valinal]

Compound | IC50
CC(=O)N[C@@H](CC(C)C)C(=O)N[C@@H](CC(C)C)C(=O)N[C@H](C=O)CCCNC(=N)N [Leupeptin] | 360 nM
